{"source": "patent US20250025397A1", "about": "“AN OIL-IN-WATER EMULSION GEL COMPRISING TIOTROPIUM BROMIDE” (Dryox Health, S.L., priority 2021, published 2025)", "key": {"[1]": {"experiment": "Tiotropium maximum solubility in a selection of excipients", "assay_type": "physicochemical", "method": "For the evaluation of the compatibility of the active in each excipient, 25 mg of tiotropium bromide (TTB) were weighed in suitable glass containers and increasing amounts of the appropriate solvent were added. The samples were subjected to heating and ultrasonication when necessary. The appearance of the mixture and the maximum concentration of TTB in each solvent was recorded.\nThe solubility of the active was determined in different excipients (polymer solvents, permeation enhancers, surfactants, emollients, etc.). Table 1 summarizes the maximum solubility achieved in each of them."}, "[2]": {"conditions": "cited from earlier work"}}, "note": "Like-named read-outs stand apart in the source and are kept apart here."}
{"smiles": "C[N+]1(C)[C@@H]2CC(OC(=O)C(O)(c3cccs3)c3cccs3)C[C@H]1[C@@H]1O[C@@H]12.[Br-]", "note": "(stereo partly drawn) [Tiotropium bromide, [(1S,2S,4R,5R)-9,9-dimethyl-3-oxa-9-azoniatricyclo[3.3.1.0^2,4]nonan-7-yl]2-hydroxy-2,2-dithiophen-2-ylacetate bromide]", "values": [{"measurement": "Maximum solubility", "setting": "[1]; in 1,3-propanediol", "result": "2.50 % (w/w)"}, {"measurement": "Maximum solubility", "setting": "[1]; in Benzyl Alcohol", "result": "50.00 % (w/w)"}, {"measurement": "Maximum solubility", "setting": "[1]; in Cremophor EL", "result": "0.20 % (w/w)"}, {"measurement": "Maximum solubility", "setting": "[1]; in Cremophor RH40", "result": "<0.12 % (w/w)"}, {"measurement": "Maximum solubility", "setting": "[1]; in DMSO", "result": ">30.00 % (w/w)"}, {"measurement": "Maximum solubility", "setting": "[1]; in Dimethyl fomamide", "result": "40.00 % (w/w)"}, {"measurement": "Maximum solubility", "setting": "[1]; in Ethanol", "result": "0.80 % (w/w)"}, {"measurement": "Maximum solubility", "setting": "[1]; in Ethyl Oleate", "result": "<0.12 % (w/w)"}, {"measurement": "Maximum solubility", "setting": "[1]; in Glycerol", "result": "6.00 % (w/w)"}, {"measurement": "Maximum solubility", "setting": "[1]; in IPM", "result": "<0.12 % (w/w)"}, {"measurement": "Maximum solubility", "setting": "[1]; in Isopropyl Alcohol", "result": "0.13 % (w/w)"}, {"measurement": "Maximum solubility", "setting": "[1]; in Kollicream ® 3C", "result": "<0.12 % (w/w)"}, {"measurement": "Maximum solubility", "setting": "[1]; in Labrasol", "result": "0.55 % (w/w)"}, {"measurement": "Maximum solubility", "setting": "[1]; in Lactic acid", "result": "20.00 % (w/w)"}, {"measurement": "Maximum solubility", "setting": "[1]; in Linseed oil", "result": "<0.12 % (w/w)"}, {"measurement": "Maximum solubility", "setting": "[1]; in MCT", "result": "<0.12 % (w/w)"}, {"measurement": "Maximum solubility", "setting": "[1]; in Oleic acid", "result": "<0.12 % (w/w)"}, {"measurement": "Maximum solubility", "setting": "[1]; in PEG-400", "result": "1.67 % (w/w)"}, {"measurement": "Maximum solubility", "setting": "[1]; in Polysorbate 20", "result": "1.15 % (w/w)"}, {"measurement": "Maximum solubility", "setting": "[1]; in Polysorbate 80", "result": "0.20 % (w/w)"}, {"measurement": "Maximum solubility", "setting": "[1]; in Propylene Glycol", "result": "5.00 % (w/w)"}, {"measurement": "Maximum solubility", "setting": "[1]; in Transcutol HP", "result": "<0.12 % (w/w)"}, {"measurement": "Maximum solubility", "setting": "[1]; in Triacetin", "result": "<0.12 % (w/w)"}, {"measurement": "Maximum solubility", "setting": "[1]; in Triolein", "result": "<0.12 % (w/w)"}, {"measurement": "solubility", "setting": "[2]; in dimethyl sulphoxide", "result": "freely soluble"}, {"measurement": "solubility", "setting": "[2]; in methanol", "result": "soluble"}, {"measurement": "solubility", "setting": "[2]; in methylene chloride", "result": "practically insoluble"}, {"measurement": "solubility", "setting": "[2]; in water", "result": "sparingly soluble"}, {"measurement": "solubility in aqueous solutions", "setting": "[2]; room temperature, independent of pH", "result": "approx. 2.5%"}]}
